Measurements published in ChEMBL document CHEMBL4483862, “Open-source discovery of chemical leads for next-generation chemoprotective antimalarials” (2018).

Tested on: Plasmodium berghei
Test: Luciferase/luciferin-expressing antifolate-resistant parasites were used to infect a culture of HepG2 cells that were pre-incubated with compounds. Infected hepatocytes emit light due to the luciferase reaction. Assay results are presented as the percent inhibition of light emission compared to control. […]
Format: functional
Settings: sporozoite; for IC90: read-out: LUCIFERASE INFECTION ASSAY - IC90

Structure (SMILES) | IC90 | further results
CCOc1cc(/C=C2\CN(CC)C/C(=C\c3ccc(O)c(OCC)c3)C2=O)ccc1O | 4.59 µM | IC50 (HEPG2TOX_HILL_SLOPE 12.4, HEPG2TOX_R_SQUARED 0.875, PBLUC_HILL_SLOPE 8.96, PBLUC_R_SQUARED 0.775, read-out: LUCIFERASE INFECTION ASSAY - IC50): 3.59 µM
CCOc1cc(/C=C2\CN(C)C/C(=C\c3ccc(O)c(OCC)c3)C2=O)ccc1O | 6.75 µM | IC50 (HEPG2TOX_HILL_SLOPE 12.2, HEPG2TOX_R_SQUARED 0.94, PBLUC_HILL_SLOPE 1.92, PBLUC_R_SQUARED 0.794, read-out: LUCIFERASE INFECTION ASSAY - IC50): 2.16 µM
CCN(c1ccccc1)S(=O)(=O)c1ccc(C(=O)NCC(c2ccccc2OC)N2CCCC2)cc1 (stereo not given) | 3.69 µM | IC50 (HEPG2TOX_HILL_SLOPE 12.4, HEPG2TOX_R_SQUARED 0.631, PBLUC_HILL_SLOPE 22.9, PBLUC_R_SQUARED 0.104, read-out: LUCIFERASE INFECTION ASSAY - IC50): 3.36 µM
O=C(Nc1ccccc1)Nc1ccc(Cl)cc1[N+](=O)[O-] | 5.21 µM | IC50 (HEPG2TOX_HILL_SLOPE 12.3, HEPG2TOX_R_SQUARED 0.323, PBLUC_HILL_SLOPE 4.88, PBLUC_R_SQUARED 0.281, read-out: LUCIFERASE INFECTION ASSAY - IC50): 3.32 µM
CCOC(=O)c1cnc(-c2ccccn2)nc1O | > 13.5 µM | IC50 (HEPG2TOX_HILL_SLOPE 12.4, HEPG2TOX_R_SQUARED 0.686, PBLUC_HILL_SLOPE 4.24, PBLUC_R_SQUARED 0.376, read-out: LUCIFERASE INFECTION ASSAY - IC50): 8.76 µM
COc1cc(C(=O)N/N=C(\Cc2ncc[nH]2)c2ccccc2)cc(OC)c1OC | > 10 µM | IC50 (HEPG2TOX_HILL_SLOPE 12.3, 3.85, HEPG2TOX_R_SQUARED 0.0839, 0.975, PBLUC_HILL_SLOPE 2.96, PBLUC_R_SQUARED 0.327, read-out: LUCIFERASE INFECTION ASSAY - IC50): 5.09 µM
FC(F)(F)c1cccc(-c2ccc3ncc(-c4cccnc4)n3n2)c1 | 2.23 µM | IC50 (HEPG2TOX_HILL_SLOPE 12.4, HEPG2TOX_R_SQUARED 0.643, PBLUC_HILL_SLOPE 4.46, PBLUC_R_SQUARED 0.619, read-out: LUCIFERASE INFECTION ASSAY - IC50): 1.36 µM
Nc1ccc(-c2cn3c(-c4ccc5ncccc5c4)cnc3cn2)cn1 | 8.67 µM | IC50 (HEPG2TOX_HILL_SLOPE 12.3, HEPG2TOX_R_SQUARED 0.596, PBLUC_HILL_SLOPE 12.7, PBLUC_R_SQUARED 0.251, read-out: LUCIFERASE INFECTION ASSAY - IC50): 7.29 µM
CCN1C/C(=C/c2ccccc2OC(F)F)C(=O)/C(=C/c2ccccc2OC(F)F)C1 | > 10 µM | IC50 (HEPG2TOX_HILL_SLOPE 12.5, HEPG2TOX_R_SQUARED 0.688, PBLUC_HILL_SLOPE 10.4, PBLUC_R_SQUARED 0.447, read-out: LUCIFERASE INFECTION ASSAY - IC50): 9.35 µM
O=C(N/N=C/c1ccc(N2CCOCC2)s1)c1ccc(COc2cccc3cccnc23)cc1 | > 10 µM | IC50 (HEPG2TOX_HILL_SLOPE 12.5, HEPG2TOX_R_SQUARED 0.767, PBLUC_HILL_SLOPE 2.46, PBLUC_R_SQUARED 0.528, read-out: LUCIFERASE INFECTION ASSAY - IC50): 5.64 µM
O=C1C(=O)N(Cc2ccc(F)cc2)c2c1cccc2C(F)(F)F | 6.88 µM | IC50 (HEPG2TOX_HILL_SLOPE 12.5, HEPG2TOX_R_SQUARED 0.837, PBLUC_HILL_SLOPE 3.51, PBLUC_R_SQUARED 0.677, read-out: LUCIFERASE INFECTION ASSAY - IC50): 3.68 µM
FC(F)(F)c1cccc(Nc2cc3[nH]c(-c4ccccn4)cc3cn2)c1 | > 10 µM | IC50 (HEPG2TOX_HILL_SLOPE 12.3, HEPG2TOX_R_SQUARED 0.757, PBLUC_HILL_SLOPE 15.4, PBLUC_R_SQUARED 0.209, read-out: LUCIFERASE INFECTION ASSAY - IC50): 9.04 µM
C=CCn1c(C)cc(C(=O)CNC(=O)Nc2ccccc2)c1C | > 10 µM | IC50 (HEPG2TOX_HILL_SLOPE 12.5, HEPG2TOX_R_SQUARED 0.766, PBLUC_HILL_SLOPE 0.462, PBLUC_R_SQUARED 0.648, read-out: LUCIFERASE INFECTION ASSAY - IC50): 0.495 µM
O=S(=O)(/C=C/c1ccccc1)N1CCSc2ccc(Cl)cc21 | 4.27 µM | IC50 (HEPG2TOX_HILL_SLOPE 12.6, HEPG2TOX_R_SQUARED 0.499, PBLUC_HILL_SLOPE 12.6, PBLUC_R_SQUARED 0.783, read-out: LUCIFERASE INFECTION ASSAY - IC50): 3.58 µM
CN(C)C(=O)c1ccc(-c2ccnc3n[nH]c(-c4ccc(Cl)cc4)c23)cc1 | 7.75 µM | IC50 (HEPG2TOX_HILL_SLOPE 12.3, HEPG2TOX_R_SQUARED 0.411, PBLUC_HILL_SLOPE 3.78, PBLUC_R_SQUARED 0.252, read-out: LUCIFERASE INFECTION ASSAY - IC50): 4.33 µM
CCN1CCc2nc(NC(=O)C3(c4ccc(Br)cc4)CC3)sc2C1 | 3.64 µM | IC50 (HEPG2TOX_HILL_SLOPE 12.5, HEPG2TOX_R_SQUARED 0.865, PBLUC_HILL_SLOPE 12.4, PBLUC_R_SQUARED 0.642, read-out: LUCIFERASE INFECTION ASSAY - IC50): 3.05 µM
CN1C/C(=C\c2ccccc2Cl)C(=O)/C(=C/c2ccccc2Cl)C1 | 3.58 µM | IC50 (HEPG2TOX_HILL_SLOPE 12.3, HEPG2TOX_R_SQUARED 0.936, PBLUC_HILL_SLOPE 378, PBLUC_R_SQUARED 0.452, read-out: LUCIFERASE INFECTION ASSAY - IC50): 3.56 µM
Cc1onc(-c2ccccc2)c1-c1csc(-c2ccc(Oc3ccc(C(F)(F)F)cn3)cc2)n1 | 2.83 µM | IC50 (HEPG2TOX_HILL_SLOPE 12.3, HEPG2TOX_R_SQUARED 0.647, PBLUC_HILL_SLOPE 12.5, PBLUC_R_SQUARED 0.454, read-out: LUCIFERASE INFECTION ASSAY - IC50): 2.37 µM
CCc1ccc2nc(Nc3nc(=O)cc(-c4cccc(OC)c4)[nH]3)nc(C)c2c1 | > 8.52 µM | IC50 (HEPG2TOX_HILL_SLOPE 12.4, HEPG2TOX_R_SQUARED 0.848, PBLUC_HILL_SLOPE 2.25, PBLUC_R_SQUARED 0.429, read-out: LUCIFERASE INFECTION ASSAY - IC50): 5.68 µM
N#Cc1ccc(Nc2nc(C(F)(F)F)nc3ccccc23)cc1 | 5.09 µM | IC50 (HEPG2TOX_HILL_SLOPE 12.3, HEPG2TOX_R_SQUARED 0.755, PBLUC_HILL_SLOPE 4.38, PBLUC_R_SQUARED 0.727, read-out: LUCIFERASE INFECTION ASSAY - IC50): 3.08 µM
CCc1ccc(CC)c(-c2csc(N/C(C)=C(\C#N)C(N)=O)n2)c1 | > 10 µM | IC50 (HEPG2TOX_HILL_SLOPE 12.4, HEPG2TOX_R_SQUARED 0.749, PBLUC_HILL_SLOPE 4.61, PBLUC_R_SQUARED 0.122, read-out: LUCIFERASE INFECTION ASSAY - IC50): 8.16 µM
O=C(Nc1cccc(C(F)(F)F)c1)c1cc(Cl)c(=O)n(Cc2cccc(C(F)(F)F)c2)c1 | > 6.95 µM | IC50 (HEPG2TOX_HILL_SLOPE 12.5, HEPG2TOX_R_SQUARED 0.604, PBLUC_HILL_SLOPE 13, PBLUC_R_SQUARED 0.312, read-out: LUCIFERASE INFECTION ASSAY - IC50): 6.47 µM
O=C(Nc1ccccc1)Nc1ccc(Sc2cccs2)cc1 | 8.94 µM | IC50 (HEPG2TOX_HILL_SLOPE 12.6, HEPG2TOX_R_SQUARED 0.73, PBLUC_HILL_SLOPE 4.46, PBLUC_R_SQUARED 0.693, read-out: LUCIFERASE INFECTION ASSAY - IC50): 5.46 µM
O=C(NC1CCCCC1)N1CCc2nc(NCc3cccc(Oc4ccccc4)c3)ncc2C1 | > 7.21 µM | IC50 (HEPG2TOX_HILL_SLOPE 12.4, HEPG2TOX_R_SQUARED 0.711, PBLUC_HILL_SLOPE 13.6, PBLUC_R_SQUARED 0.535, read-out: LUCIFERASE INFECTION ASSAY - IC50): 6.74 µM
Cc1cc(Br)c(O)c(/C=N/NC(=S)NC(C)(C)C)c1 | 4.85 µM | IC50 (HEPG2TOX_HILL_SLOPE 12.3, HEPG2TOX_R_SQUARED 0.401, PBLUC_HILL_SLOPE 113, PBLUC_R_SQUARED 0.332, read-out: LUCIFERASE INFECTION ASSAY - IC50): 4.76 µM
Fc1ccc(CNc2ncnc3ccsc23)cc1 | > 10 µM | IC50 (HEPG2TOX_HILL_SLOPE 12.4, 1.24, HEPG2TOX_R_SQUARED 0.688, 0.830, PBLUC_HILL_SLOPE 1.50, 7.58, PBLUC_R_SQUARED 0.332, 0.354, read-out: LUCIFERASE INFECTION ASSAY - IC50): 6.82 µM
N#Cc1ccc(/C=C/C(=O)c2cccc3ccccc23)cc1 | 7.94 µM | IC50 (HEPG2TOX_HILL_SLOPE 12.4, HEPG2TOX_R_SQUARED 0.741, PBLUC_HILL_SLOPE 61.7, PBLUC_R_SQUARED 0.602, read-out: LUCIFERASE INFECTION ASSAY - IC50): 7.66 µM
FC(F)(F)c1cc(-n2c(-c3cccnc3Oc3ccccc3)n[nH]c2=S)cc(C(F)(F)F)c1 | 4.66 µM | IC50 (HEPG2TOX_HILL_SLOPE 12.4, HEPG2TOX_R_SQUARED 0.913, PBLUC_HILL_SLOPE 1.97, PBLUC_R_SQUARED 0.614, read-out: LUCIFERASE INFECTION ASSAY - IC50): 1.53 µM
CCOC(=O)c1c(C)[nH]c(C(=O)Nc2nc(-c3ccc(C4CCCCC4)cc3)cs2)c1C | 9.4 µM | IC50 (HEPG2TOX_HILL_SLOPE 12.2, HEPG2TOX_R_SQUARED 0.959, PBLUC_HILL_SLOPE 12.5, PBLUC_R_SQUARED 0.559, read-out: LUCIFERASE INFECTION ASSAY - IC50): 7.88 µM
C/C=C/C=C/C(=O)Nc1ccc(Nc2ccccc2)cc1 | 5.63 µM | IC50 (HEPG2TOX_HILL_SLOPE 12.3, HEPG2TOX_R_SQUARED 0.699, PBLUC_HILL_SLOPE 454, 10.1, PBLUC_R_SQUARED 0.588, 0.566, read-out: LUCIFERASE INFECTION ASSAY - IC50): 5.17 µM
